Results on one compound are retold here after patent publication US12655083B2, “Solid forms of cannabidiol and uses thereof” (Artelo Biosciences, Inc., priority 2017, dated 2026).

Converted amounts (≈) assume the structure as drawn.

Data set [1] in a line: Colour change of solutions from solubility estimates at room temperature. Type of data set: physicochemical. The conditions noted are these: acetone, acetonitrile, DMA, DMF, p-dioxane, ethanol, IPOAc, MEK and methanol; after 1-3 days at room temperature. How it is done: Kinetic solubility estimates of cannabidiol were determined in various solvents to aid in designing screening experiments (Tables 1 and 2). Solubilities were estimated by adding measured aliquots of solvent to weighed amounts of cannabidiol at room temperature (RT). Samples were sonicated in between aliquot additions and dissolution was judged by visual inspection. Discoloration of the solutions produced from solubility estimates in acetone, acetonitrile, DMA, DMF, p-dioxane, ethanol, IPOAc, MEK and methanol were observed after 1-3 days at room temperature.

A short description of data set [2]: Approximate (kinetic) solubility estimate by aliquot addition with visual inspection. As to conditions: for solubility: thermodynamic from solid, ambient temperature. It counts as physicochemical. The protocol: Weighed samples were treated with aliquots of a solvent or solvent mixture at RT. The mixtures were sonicated between additions to facilitate dissolution. Complete dissolution of the test material was determined by visual inspection. Solubility was estimated based on the total solvent used to provide complete dissolution. The actual solubility may be greater than the value calculated because of the use of solvent aliquots that were too large or due to a slow rate of dissolution. […] If complete dissolution was achieved as a result of only one aliquot addition, the solubility is expressed as “greater than.”
Solubilities were estimated by adding measured aliquots of solvent to weighed amounts of cannabidiol at room temperature (RT). Samples were sonicated in between aliquot additions and dissolution was judged by visual inspection.

What is called solubility is the concentration that dissolves in the medium under given conditions. As to `C=C(C)[C@@H]1CCC(C)=C[C@H]1c1c(O)cc(CCCCC)cc1O` [Cannabidiol], the “Discoloration of solutions from solubility estimates” value in data set [1] is “Discoloration”. Further, the solubility is 23 mg/mL (≈ 73.1 mM) in data set [2] (organic solvent or mixture, Acetone); more than 50 mg/mL in data set [2] (organic solvent or mixture, Acetonitrile); 15 mg/mL (≈ 47.7 mM) in data set [2] (organic solvent or mixture, Cyclohexane); 19 mg/mL (≈ 60.4 mM) in data set [2] (organic solvent or mixture, DCM); 21 mg/mL (≈ 66.8 mM) in data set [2] (organic solvent or mixture, DMSO); more than 57 mg/mL in data set [2] (organic solvent or mixture, Diethyl Ether). The solubility in data set [2] (organic solvent or mixture, EtOAc) was more than 46 mg/mL; in data set [2] (organic solvent or mixture, IPA) it was 14 mg/mL (≈ 44.5 mM); in data set [2] (organic solvent or mixture, IPOAc) it was more than 68 mg/mL; in data set [2] (organic solvent or mixture, MEK), more than 55 mg/mL; in data set [2] (organic solvent or mixture, MIBK), more than 59 mg/mL; in data set [2] (organic solvent or mixture, MTBE) it was 34 mg/mL (≈ 108 mM). The solubility in data set [2] (organic solvent or mixture, MeOH) was more than 57 mg/mL; in data set [2] (organic solvent or mixture, NMP), 29 mg/mL (≈ 92.2 mM); in data set [2] (organic solvent or mixture, Octanol), 13 mg/mL (≈ 41.3 mM); in data set [2] (organic solvent or mixture, TFE) it was less than 1 mg/mL; in data set [2] (organic solvent or mixture, THF), more than 71 mg/mL; in data set [2] (organic solvent or mixture, p-dioxane) it was more than 48 mg/mL. Also, the solubility in data set [2] (Water) is less than 1 mg/mL. Besides, the Aqueous solubility estimate in data set [2] (water, aliquot addition method) is on record as less than 1 mg/mL.
